How the values were obtained:
[1] = target: Cyclin-dependent kinase 9/cyclin T1 (Homo sapiens); test: Inhibition of CDK9/cyclin T1 (unknown origin)
[2] = target: Glycogen synthase kinase-3 beta (Homo sapiens) (UniProt P49841); test: Inhibition of human recombinant GSK3beta
[3] = target: Glycogen synthase kinase-3 alpha (Homo sapiens, UniProt P49840); test: Inhibition of human recombinant GSK3alpha
Glycogen synthase kinase-3 alpha, sequence (P49840 whole entry): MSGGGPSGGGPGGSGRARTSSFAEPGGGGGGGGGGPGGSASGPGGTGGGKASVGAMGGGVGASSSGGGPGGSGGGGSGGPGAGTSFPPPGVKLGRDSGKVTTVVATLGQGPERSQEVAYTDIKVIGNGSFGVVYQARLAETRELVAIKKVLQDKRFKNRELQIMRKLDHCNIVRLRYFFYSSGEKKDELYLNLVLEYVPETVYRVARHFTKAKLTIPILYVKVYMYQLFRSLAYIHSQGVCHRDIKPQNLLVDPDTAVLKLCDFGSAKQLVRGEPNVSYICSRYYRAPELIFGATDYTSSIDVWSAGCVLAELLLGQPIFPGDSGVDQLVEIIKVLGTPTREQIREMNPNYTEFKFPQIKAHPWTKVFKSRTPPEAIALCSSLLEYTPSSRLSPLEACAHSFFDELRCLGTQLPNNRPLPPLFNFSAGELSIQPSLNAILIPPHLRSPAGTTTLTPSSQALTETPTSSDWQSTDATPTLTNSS

Glycogen synthase kinase-3 beta (Homo sapiens), sequence (P49841 whole entry, looked up): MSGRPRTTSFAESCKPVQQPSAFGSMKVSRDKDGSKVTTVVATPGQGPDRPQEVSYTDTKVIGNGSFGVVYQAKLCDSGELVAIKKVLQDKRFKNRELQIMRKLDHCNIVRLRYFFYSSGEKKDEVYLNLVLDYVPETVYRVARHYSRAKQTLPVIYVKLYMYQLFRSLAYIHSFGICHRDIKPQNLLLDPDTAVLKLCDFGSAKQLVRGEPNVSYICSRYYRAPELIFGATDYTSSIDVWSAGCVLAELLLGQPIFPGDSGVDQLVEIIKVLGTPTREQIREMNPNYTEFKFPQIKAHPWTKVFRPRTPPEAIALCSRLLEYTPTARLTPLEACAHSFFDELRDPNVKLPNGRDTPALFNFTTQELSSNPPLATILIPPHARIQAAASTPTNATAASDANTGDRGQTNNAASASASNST

## COc1cc(CC(=O)Nc2cc(C3CCC3)[nH]n2)cc(OC)c1OC
[1]
  IC50: 5.71 µM

## CCN1CCC(NC(=O)c2c(C)noc2C(C)C)CC1 [Name not given]
[2]
  IC50: 9.1 µM

## COc1ncccc1C(=O)Nc1cc(S(C)(=O)=O)ccc1N1CCC(Oc2ccc(F)cc2F)CC1 [Name not given]
[3]
  IC50: 2.3 µM

— BindingDB's records for PubMed 37722288 (Southwest Jiaotong University)
